One data set relates to PDE4. The experiment in a line: Evaluation of PDE4 inhibitory activity, scintillation proximity assay. The settings on record: for PDE4 inhibitory activity: summary in words of Tables 57 to 69. The class given is biochemical. Put shortly: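 SPA with [2,8-3H]-cAMP and diluted PDE4 enzyme preparation in 50 mM Tris-HCl pH 7.4, 8.3 mM MgCl2, 1.7 mM EGTA, 3 mg/mL BSA, 120 min at room temperature. Product captured on ZnSO4-containing YSi-SPA beads, scintillation counted; IC50 from inhibition curves vs DMSO control and no-enzyme blank.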
For orientation: SPA uses beads or plates that emit light when radiolabelled molecules are held near them.

In data set [1] the test system is TNFα. The experiment in a line: Cytokine suppression using whole human blood: TNFα (lipopolysaccharide stimulus). The class given is cell-based. The following applies: human whole blood, read-out: TNFα Inhibitory Activity, Human Whole Blood (Test Example 3). The protocol: The test compound dissolved in dimethyl sulfoxide was added to a 96-well plate, and RPMI-1640 medium and human peripheral blood containing sodium heparin were added, followed by culture at 37° C. under 5% CO2 for 1 hour. A medium containing only dimethyl sulfoxide instead of the test compound was added to the control well. To each well, lipopolysaccharide (final concentration 10 ng/mL) as a TNFα production stimulant, or phytohaemagglutinin (final concentration 20 μg/mL) as an IL-17A production stimulant, or CytoStim reagent ( 1/100 concentration) and CD28 antibody (final concentration 2.5 ng/mL) as an IL-4 production stimulant and an IL-5 production stimulant were added, followed by culture at 37° C. under 5% CO2. The culture was carried out for about 18 hours for the evaluation of the amount of TNFα, and for about 48 hours for the evaluation of the amounts of IL-17A, IL-4, and IL-5.
After collecting the culture supernatant after culturing, the amount of each cytokine was measured by the sandwich ELISA method. The cytokine production suppression rate (inhibition rate) by the test compound was calculated by the following formula from the cytokine production amount when the test compound was added, with the cytokine production amount for the control well as 100%. Inhibition Rate={1−(Cytokine Amount at Addition of Each Test Compound)/(Cytokine Amount for Control Well)}×100
In addition, the cytokine inhibitory activity (concentration for the inhibition rate of 50%) of the test compound was calculated from the inhibition curves based on the inhibition rates for various concentrations of the test compound.
The measurement results obtained by measuring the TNFα inhibitory activity and IL-5 inhibitory activity (50% inhibitory concentration) of the test compounds by the above method were evaluated in accordance with the following evaluated basis; A: less than 100 nM, B: 100 nM or more and less than 500 nM, and C: 500 nM or more. In addition, the measurement results obtained by measuring the IL-17A inhibitory activity and IL-4 inhibitory activity (50% inhibitory concentration) of the test compounds were evaluated in accordance with the following evaluated basis; A: less than 500 nM, B: 500 nM or more and less than 5000 nM, and C: 5000 nM or more.

Data set [2] concerns TNFα. Briefly: Cytokine suppression using human peripheral blood mononuclear cells: TNFα. The class given is cell-based. The following applies: human PBMC, lipopolysaccharide 1 ng/mL; read-out: TNFα Inhibitory Activity, Human PBMC (Test Example 4). The protocol: First, peripheral blood mononuclear cells (PBMC) were separated from whole blood by specific gravity centrifugation. Then, the isolated peripheral blood mononuclear cells were added to RPMI-1640 medium (containing 10% fetal bovine serum, penicillin, streptomycin, L-glutamine, and 2-mercaptoethanol), and cultured in a 96-well plate at 37° C. under 5% CO2 for 0 to 1 hour. The test compound dissolved in dimethyl sulfoxide was added to each well, followed by further culture at 37° C. under 5% CO2 for 1 hour. A medium containing only dimethyl sulfoxide instead of the test compound was added to the control well. To each well, lipopolysaccharide (final concentration 1 ng/mL) as a TNFα production stimulant and an IL-23 production stimulant, or concanavalin A (final concentration 20 μg/mL) as an IL-17A production stimulant was added, followed by culture at 37° C. under 5% CO2. In addition, as IL-4 production stimulus, IL-5 production stimulus, and IL-13 production stimulus, PBMC was seeded on a 96-well plate previously coated with a CD3 antibody (final concentration 3 μg/mL), and a CD28 antibody (final concentration 5 ng/mL) was added. The culture was carried out for about 18 hours for the evaluation of the amounts of TNFα and IL-23, and about 48 hours for the evaluation of the amounts of IL-17A, IL-4, IL-5, and IL-13. After collecting the culture supernatant after culturing, the amount of each cytokine was measured by the sandwich ELISA method in the same manner as in Test Example 3, and the cytokine production suppression rate (inhibition rate) and the cytokine inhibitory activity (concentration for the inhibition rate of 50%) of each test compound were calculated.
The measurement results obtained by measuring the TNFα inhibitory activity and IL-5 inhibitory activity (50% inhibitory concentration) of the test compounds by the above method were evaluated in accordance with the following evaluated basis; A: less than 10 nM, B: 10 nM or more and less than 100 nM, and C: 100 nM or more. In addition, the measurement results obtained by measuring the IL-17A inhibitory activity, IL-23 inhibitory activity, IL-4 inhibitory activity, and IL-13 inhibitory activity (50% inhibitory concentration) of the test compounds were evaluated in accordance with the following evaluated basis; A: less than 500 nM, B: 500 nM or more and less than 5000 nM, and C: 5000 nM or more.

The subject of data set [3] is oxazolone-induced auricle edema, BALB/c mice. Briefly: Hapten repeated application mouse chronic dermatitis model (oral, topical). The class given is in vivo. The settings on record: for Mouse Chronic Dermatitis Model (Test Example 8), Oral: edema suppression rate: 0.3 to 10 mg/kg twice a day for 10 days; for Mouse Chronic Dermatitis Model (Test Example 8), Topical: edema suppression rate: 20 μL of 0.3 to 3% solution once or twice a day for 10 days. The protocol:
Evaluation was carried out using female BALB/c mice (7 to 8 weeks of age). First, the hair of the abdomen of the mice was treated with a hair clipper, and then 150 μL of a 3% oxazolone acetone/ethanol solution was applied to the abdomen as a hapten. One week later, 20 μL/ear of 1% oxazolone acetone/ethanol solution was applied to the outer surface of the auricle of both ears of the mice 3 times/week to induce inflammation. A 1% oxazolone-acetone/ethanol solution was applied every other day for 10 days from 1 week after the start of inflammation induction. In addition, for 10 days from 1 week after the start of inflammation induction, the test compound suspended in 0.5% w/v methylcellulose (0.5% MC) was orally administered at 0.3 to 10 mg/kg twice a day (10 μL/g), or 20 μL of a 0.3 to 3% test compound dissolved in an acetone/ethanol solution was applied once or twice a day (topical administration). A 1% oxazolone was not applied to the blank. The control was one in which 1% oxazolone was applied and only 0.5% MC was orally administered without using the test compound, or only an acetone/ethanol solution was applied.
After administration for 10 days, auricle thickness was measured using a dial thickness gauge, and the changes in auricular thickness before the treatment (immediately before the start of administration of the test compound) and after the treatment (after the administration of the test compound for 10 days) were used to calculate the edema suppression rate by the following formula. Edema Suppression Rate (%)={1−(Auricle Thickness After Treatment by Test Compound−Auricle Thickness Before Treatment by Test Compound)/(Auricle Thickness After Treatment of Control−Auricle Thickness Before Treatment of Control)}×100
The measurement results obtained by measuring the edema suppression rate at the time of oral administration of each test compound by the above method were evaluated in accordance with the following evaluated basis; A: 70% or more, B: 40% or more and less than 70%, and C: less than 40%. In addition, the measurement results obtained by measuring the edema suppression rate at the time of topical administration of each test compound were evaluated in accordance with the following evaluated basis; A: 100% or more, B: 70% or more and less than 100%, and C: less than 70%.

Data set [4] has the same test system. The experiment in a line: Mouse delayed type hypersensitivity (DTH) model (topical). The class given is in vivo. The following applies: 20 μL applied to auricle, 24 hours after application. The protocol: Evaluation was carried out using female BALB/c mice (7 to 8 weeks of age). First, the hair of the abdomen of the mice was treated with a hair clipper, and then 150 μL of a 3% oxazolone acetone/ethanol solution was applied to the abdomen as a hapten. Five days later, 20 μL/ear of a 1% oxazolone.acetone/ethanol solution was applied to the outer surface of the auricle of both ears of the mouse to induce inflammation. Thirty minutes after the start of inflammation induction, 20 μL of the test compound dissolved in an acetone/ethanol solution was applied to the auricle. A 1% oxazolone was not applied to the blank. The control was one in which 1% oxazolone was applied and only an acetone/ethanol solution was applied without using the test compound. The auricle thickness 24 hours after application of the test compound was measured with a dial thickness gauge, and the value obtained by subtracting the blank value was used to calculate the edema suppression rate by the following formula. Edema Suppression Rate (%)={1−(Value at Addition of Each Test Compound−Blank Value)/(Control Value−Blank Value)}×100 The measurement results obtained by measuring the edema suppression rate at the time of topical administration of each test compound by the above method were evaluated in accordance with the following evaluated basis; A: 60% or more, B: 40% or more and less than 60%, and C: less than 40%.

Data set [5] in a line: Hepatic metabolic stability (rat liver microsome method). The class given is in vitro ADME. The following applies: rat liver microsomes 0.5 mg/mL, test substance 1 μM, NADPH 1 mM, 37° C., 30 minutes. Put shortly: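 Rat liver microsomes (0.5 mg/mL final) with test compound (1 μM final) in 100 mM potassium phosphate pH 7.4, 37° C; reaction started with NADPH (1 mM final) after 5 min preincubation. Acetonitrile stop at 0 and 30 min, LC-MS quantitation; % remaining = 30 min/0 min ×100, graded A ≥75%, B 60–<75%, C 45–<60%, D <45%.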
For orientation: Microsomes from liver hold many membrane-bound enzymes, among them those of drug oxidation.

The test system of data set [6] is substance P-induced pruritus behavior, ICR mice. The experiment in a line: Mouse pruritus model. The class given is in vivo. The following applies: oral, substance P intradermally 2 hours after administration. The protocol: Evaluation was carried out using male ICR mice (5 to 7 weeks of age). A micro magnet was embedded under the skin of both hind limbs of the mice in advance, and the hair on the back of the mouse neck was shaved. On the day of the test, the test compound was dissolved or suspended in 0.5% w/v methylcellulose (0.5% MC) and orally administered. Two hours after administration of the test compound, 50 μL of 300 nM substance P dissolved in saline was intradermally administered to the back of the mouse neck. The blank was a non-pruritus-induced group orally administered with 0.5% MC instead of the test compound and intradermally administered with saline instead of substance P, and the pruritus induction control was a group orally administered with 0.5% MC instead of the test compound. The pruritus measurement system for small animals, MicroAct II, automatically measured pruritus behavior for 30 minutes immediately after intradermal administration.

Where [7] appears, read: finer grading of compounds rated A in Evaluation 1, read-out: PDE4 Inhibitory Activity (Evaluation 2).

Molecules are shown by their SMILES. Like-named read-outs stand apart in the source and are kept apart here.

For the compound `OC(c1ccc(-c2nccs2)c2oc(N3CC4CCC(C3)N4)nc12)C(F)(F)F` (stereo not shown) [Example 119, 1-(2-(3,8-Diazabicyclo[3.2.1]octan-3-yl)-7-(thiazol-2-yl)benzo[d]oxazol-4-yl)-2,2,2-trifluoroethan-1-ol], the IC50 with PDE4 (setting [7]) was at most 1 nM; in the data set with PDE4 (scintillation proximity assay, class symbols of Evaluation 1, read-out: PDE4 Inhibitory Activity (concentration for the inhibition rate of 50%, IC50), Evaluation 1) it was below 100 nM; in the data set with TNFα [1], below 100 nM; in the data set with TNFα [2], below 10 nM. Further, the PDE4 inhibitory activity result in the data set on PDE4 is “particularly excellent”. Moreover, the “Mouse Chronic Dermatitis Model (Test Example 8), Oral: edema suppression rate” value in data set [3] was “A (A: 70% or more)”.
In the case of `N#Cc1ccc(Oc2ccc3c(c2)COB3O)cc1` [crisaborole, reference compound], the IC50 in the data set on PDE4 (setting [7]) and in the data set with TNFα [2] was above 100 nM each time. The “Mouse Chronic Dermatitis Model (Test Example 8), Topical: edema suppression rate” value in data set [3] is given as “C (C: less than 70%)”. In addition, the “Mouse DTH Model (Test Example 11), Topical: edema suppression rate” value in data set [4] is “C (C: less than 40%)”.
With `CC(O)C(F)(F)Oc1ccc(-c2nccs2)c2oc(N3CC4CC(C3)N4)nc12` (single isomer, unassigned) [Example 251, 1-((2-(3,6-Diazabicyclo[3.1.1]heptan-3-yl)-7-(thiazol-2-yl)benzo[d]oxazol-4-yl)oxy)-1,1-difluoropropan-2-ol], the IC50 is at most 1 nM with PDE4 (setting [7]); below 100 nM in the data set on PDE4 (scintillation proximity assay, read-out: PDE4 Inhibitory Activity (Evaluation 1; concentration for the inhibition rate of 50%)); below 100 nM in the data set on TNFα [1] (Homo sapiens). Also, the PDE4 inhibitory activity entry with PDE4 is “particularly excellent”. Besides, the “Residual ratio (% remaining for 30-minute reaction)” value in data set [5] was “A (A: a % remaining rate of 75% or more)”. The “Mouse Chronic Dermatitis Model (Test Example 8), Oral: edema suppression rate” value in data set [3] was “B (B: 40% or more and less than 70%)”. Moreover, the “Mouse Chronic Dermatitis Model (Test Example 8), Topical: edema suppression rate” value in data set [3] is given as “A (A: 100% or more)”. Also, in data set [4], the “Mouse DTH Model (Test Example 11), Topical: edema suppression rate” value was “B (B: 40% or more and less than 60%)”.
In the case of `CC(C)(C(=O)O)c1ccc(C(O)CCCN2CCC(C(O)(c3ccccc3)c3ccccc3)CC2)cc1` (stereo not shown) [fexofenadine, reference compound], the “scratching behavior (pruritus behavior for 30 minutes)” value in data set [6] was “did not suppress scratching behavior”.
